In patent publication US20220184008A1, “MODULATORS OF INTRACELLULAR CHLORIDE CONCENTRATION” (FONDAZIONE ISTITUTO ITALIANO DI TECNOLOGIA, priority 2019, published 2022):

Columns and labels:
[1] = Solubility in aqueous buffer; type: physicochemical; details: PBS, pH 7.4, aqueous buffer
Experimental: (§1) FIG. 3: Assessment of drug-likeness of a selected compound, compound 3.17. a) Chemicophysical properties of bumetanide and compound 3.17 by LC-MS analysis. b) Comparison between urinary volume of WT mice (C57Bl/6N) two hours after treatment with bumetanide (0.2 mg/kg) and compound 3.17 (0.2 mg/kg). c) Assessment of urinary volume of Ts65Dn mouse model of Down syndrome and WT littermates two hours after treatment with compound 3.17 (0.2 mg/kg). Number in parenthesis: number of analyzed animals. Data represents mean±sem, and they are presented as % of the respective vehicle.
(§2) The selected NKCC1 inhibitor compound 3.17 has been evaluated for solubility in aqueous buffers, and stability in plasma and phase I metabolism in vitro (FIG. 3a).

Ts65Dn mice = assay: Cognitive impairment tests in Ts65Dn mice (object location, object recognition, T-maze, fear conditioning); type: in vivo; details: i.p. 0.2 mg/kg, one week; four cognitive tests
Excerpt: FIG. 4: In vivo assessment of the efficacy of the selected NKCC1 inhibitor in Ts65Dn mice. (a) Quantification of the discrimination index in mice treated with vehicle (WT, n=14, Ts65Dn, n=10;) or 3.17 (WT, n=14, Ts65Dn, n=11;) ***P<0.001; two-way ANOVA Tukey's post hoc test. (b) Quantification of the discrimination index in mice treated with vehicle (WT, n=14, Ts65Dn, n=10;) or 3.17 (WT, n=14, Ts65Dn, n=11) *P<0.05, **P<0.01 two-way ANOVA Tukey's post hoc test. (c) Quantification of the correct choices in mice treated with vehicle (WT, n=14, Ts65Dn, n=10;) or 3.17 (WT, n=14, Ts65Dn, n=11;) ***P<0.001; two-way ANOVA Tukey's post hoc test. (d) Quantification of the freezing response in mice treated with vehicle (WT, n=14, Ts65Dn, n=10;) or 3.17 (WT, n=14, Ts65Dn, n=11;) *P<0.05, **P<0.01 two-way ANOVA Tukey's post hoc test.
The efficacy of compound 3.17 in rescuing cognitive impairment in four different cognitive tests in Ts65Dn mice (FIG. 4) has been evaluated. Adult Ts65Dn mice and their WT littermates were treated (2 months old) for one week with 3.17 (i.p. 0.2 mg/kg) or its vehicle. For the following three weeks, the animals were tested in four different tasks assessing memory and cognition: a) novel object location task (Deidda, G. et al. Reversing excitatory GABAAR signaling restores synaptic plasticity and memory in a mouse model of Down syndrome. […]

Stability in plasma = type: in vitro ADME; details: resistance to hydrolysis, read-out: t½ in plasma
Experimental: as §1, §2

solubility [1]: > 250 µM
half-life (Stability in plasma): > 2 h
Structure (SMILES): CN(C)S(=O)(=O)c1cc(C(=O)O)ccc1NCCCCCCCC(F)(F)F [Compound 3.17, 3-(dimethylsulfamoyl)-4-(8,8,8-trifluorooctylamino) benzoic acid]
cognitive performance of Ts65Dn mice (Ts65Dn mice): ameliorated
